What was measured:
B16F10 cells = test: Melanin assay (melanin inhibitory effect); assay type: cell-based; settings: 10 μM polypeptide, α-MSH 0.5 μM, 24 hours, absorbance 490 nm, control 10 μM arbutin, FIG. 1
Procedure: B16F10 cells (6×10^4 cells/well) were aliquoted into 6-well plates and incubated. After 12 hours, the medium was changed to a medium containing α-MSH (Sigma, 0.5 μM) and the test substance (each of the polypeptides or control substances of the present invention). Each 10 μM of polypeptides were treated. In addition, 10 μM of arbutin, which is widely known as a skin whitening ingredient, was used as a control. After incubation for 24 hours, cells were harvested. The number of cells was confirmed using a C-chip (disposable hemacytometer, […]). Cells (1×10^5 cells) were lysed with 1N NaOH at 70° C. for 1 hour. After centrifugation at 4,000 rpm for 5 minutes, the supernatant was harvested and the melanin content was measured. The absorbance of melanin was measured at 490 nm using a microplate reader (Synergy 2, BioTek).

tyrosinase = biological target: T1, tyrosinase (Mus musculus, UniProt P11344); test: Tyrosinase activity assay (tyrosinase inhibitory effect); assay type: cell-based; settings: 10 μM polypeptide, α-MSH 0.5 μM, 24 hours, B16F10 cell lysate with 5 mM L-DOPA; control 10 μM arbutin; FIG. 2
T1 construct: Cells were lysed with PBS buffer containing 1% Triton X-100 (Sigma); endogenous in cells; host or cells: B16F10 cells, stimulated with alpha-MSH
T1 sequence (P11344 19-533): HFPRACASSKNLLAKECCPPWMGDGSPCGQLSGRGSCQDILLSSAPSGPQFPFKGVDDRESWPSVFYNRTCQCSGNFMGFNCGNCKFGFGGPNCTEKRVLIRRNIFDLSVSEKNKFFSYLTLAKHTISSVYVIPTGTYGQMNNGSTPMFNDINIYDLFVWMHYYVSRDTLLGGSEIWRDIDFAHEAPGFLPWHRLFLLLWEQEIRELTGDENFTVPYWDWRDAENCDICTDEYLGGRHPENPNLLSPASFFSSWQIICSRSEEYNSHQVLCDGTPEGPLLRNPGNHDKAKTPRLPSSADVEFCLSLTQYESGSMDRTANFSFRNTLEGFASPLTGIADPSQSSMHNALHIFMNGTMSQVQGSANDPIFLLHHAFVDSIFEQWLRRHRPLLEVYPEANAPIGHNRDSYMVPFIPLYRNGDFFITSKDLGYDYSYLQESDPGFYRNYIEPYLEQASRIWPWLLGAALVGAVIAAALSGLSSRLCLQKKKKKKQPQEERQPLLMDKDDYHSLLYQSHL
Procedure: B16F10 cells (6×10^4 cells/well) were aliquoted into 6-well plates and incubated. After 12 hours, the medium was changed to a medium containing a-MSH (Sigma, 0.5 μM) and the test substance (each of the polypeptides or control substances of the present invention). Each 10 μM of polypeptides were treated. In addition, 10 μM of arbutin, which is widely known as a skin whitening ingredient, was used as a control. After incubation for 24 hours, cells were harvested. Cells were lysed with PBS buffer containing 1% Triton X-100 (Sigma). After centrifugation at 12,000 rpm for 20 minutes, the supernatant was harvested and the protein concentration was measured by BCA assay kit (Thermo Fisher Scientific). To measure tyrosinase activity, 50 μg of protein (protein contained in the supernatant) was incubated at 37° C. with 5 mM L-DOPA. Absorbance was measured at 490 nm using a microplate reader (Synergy 2, BioTek). Absorbance was measured every 10 minutes for 1 hour.

Sequence	inhibitory effect of melanin production (B16F10 cells)	inhibitory effect of tyrosinase (tyrosinase)
ADQIIEYLKQQVSLL (amino acid sequence of peptide for skin whitening (AIMP1 18aa - 32aa)) [Peptide S2]	better inhibitory effect of melanin production than arbutin	same level of the inhibitory effect of tyrosinase as arbutin
LKEKAILQATLREEK (peptide fragment from AIMP1(AIMP1 32aa - 46aa)) [Peptide S10]	completely absent	insignificant

From patent US20230242584A1, “NOVEL POLYPEPTIDES WITH SKIN WHITENING ACTIVITY AND USE THEREOF” (Metapore Co., Ltd., priority 2019, published 2023)
